Laboratory results published in patent publication US10266537B2, “3-acetylenyl-pyrazole-pyrimidine derivative, and preparation method therefor and uses thereof” (Si Chuan University, priority 2015, dated 2019).

Experiments:
[1] = target: TrkB (Homo sapiens (Human), UniProt Q16620); experiment: Kinase inhibition assay (KinaseProfiler, 33P-ATP); type: biochemical; conditions: TrkB(h), read-out: The percentage of the remaining active protein
[2] = tested on: SMMC7721; experiment: Cell proliferation inhibition assay (MTT); type: cell-based; conditions: Homo sapiens, SMMC-7721, 72 hours, read-out: Proliferation inhibitory activity IC50
[3] = tested on: PC-9; experiment: Cell proliferation inhibition assay (MTT); type: cell-based; conditions: Homo sapiens, 72 hours, read-out: Proliferation inhibitory activity IC50
[4] = target: Abl (M351T)(h) (Homo sapiens (Human), UniProt P00519, M351T); experiment: Kinase inhibition assay (KinaseProfiler, 33P-ATP); type: biochemical; conditions: read-out: The percentage of the remaining active protein
[5] = target: CDK3/cyclinE(h) (Homo sapiens (Human), UniProt Q00526); experiment: Kinase inhibition assay (KinaseProfiler, 33P-ATP); type: biochemical; conditions: read-out: The percentage of the remaining active protein
[6] = target: CDK4/cyclinD3(h) (Homo sapiens (Human), UniProt P11802); experiment: Kinase inhibition assay (KinaseProfiler, 33P-ATP); type: biochemical; conditions: read-out: The percentage of the remaining active protein
[7] = target: CDK5/p25(h) (Homo sapiens (Human), UniProt Q00535); experiment: Kinase inhibition assay (KinaseProfiler, 33P-ATP); type: biochemical; conditions: read-out: The percentage of the remaining active protein
[8] = target: CDK9/cyclin T1(h) (Homo sapiens (Human), UniProt P50750); experiment: Kinase inhibition assay (KinaseProfiler, 33P-ATP); type: biochemical; conditions: read-out: The percentage of the remaining active protein
[9] = target: CHK2(R145W)(h) (Homo sapiens (Human), UniProt O96017, R145W); experiment: Kinase inhibition assay (KinaseProfiler, 33P-ATP); type: biochemical; conditions: read-out: The percentage of the remaining active protein
[10] = target: FGFR2(N549H)(h) (Homo sapiens (Human), UniProt P21802, N549H); experiment: Kinase inhibition assay (KinaseProfiler, 33P-ATP); type: biochemical; conditions: read-out: The percentage of the remaining active protein
[11] = target: GCN2(h) (Homo sapiens (Human), UniProt Q9P2K8); experiment: Kinase inhibition assay (KinaseProfiler, 33P-ATP); type: biochemical; conditions: read-out: The percentage of the remaining active protein
[12] = target: GRK6(h) (Homo sapiens (Human), UniProt P43250); experiment: Kinase inhibition assay (KinaseProfiler, 33P-ATP); type: biochemical; conditions: read-out: The percentage of the remaining active protein
[13] = target: IR(h) (Homo sapiens (Human), UniProt P06213); experiment: Kinase inhibition assay (KinaseProfiler, 33P-ATP); type: biochemical; conditions: read-out: The percentage of the remaining active protein
[14] = target: IRR(h) (Homo sapiens (Human), UniProt P14616); experiment: Kinase inhibition assay (KinaseProfiler, 33P-ATP); type: biochemical; conditions: read-out: The percentage of the remaining active protein
[15] = target: IRAK4(h) (Homo sapiens (Human), UniProt Q9NWZ3); experiment: Kinase inhibition assay (KinaseProfiler, 33P-ATP); type: biochemical; conditions: read-out: The percentage of the remaining active protein
[16] = target: LKB1(h) (Homo sapiens (Human), UniProt Q15831); experiment: Kinase inhibition assay (KinaseProfiler, 33P-ATP); type: biochemical; conditions: read-out: The percentage of the remaining active protein
[17] = target: LTK(h) (Homo sapiens (Human), UniProt P29376); experiment: Kinase inhibition assay (KinaseProfiler, 33P-ATP); type: biochemical; conditions: read-out: The percentage of the remaining active protein
[18] = target: Met(D1246H)(h) (Homo sapiens (Human), UniProt P08581, D1246H); experiment: Kinase inhibition assay (KinaseProfiler, 33P-ATP); type: biochemical; conditions: read-out: The percentage of the remaining active protein
[19] = target: Met(D1246N)(h) (Homo sapiens (Human), UniProt P08581, D1246N); experiment: Kinase inhibition assay (KinaseProfiler, 33P-ATP); type: biochemical; conditions: read-out: The percentage of the remaining active protein
[20] = target: NEK6(h) (Homo sapiens (Human), UniProt Q9HC98); experiment: Kinase inhibition assay (KinaseProfiler, 33P-ATP); type: biochemical; conditions: read-out: The percentage of the remaining active protein
[21] = target: NLK(h) (Homo sapiens (Human), UniProt Q9UBE8); experiment: Kinase inhibition assay (KinaseProfiler, 33P-ATP); type: biochemical; conditions: read-out: The percentage of the remaining active protein
[22] = target: PAK5(h) (Homo sapiens (Human), UniProt Q9P286); experiment: Kinase inhibition assay (KinaseProfiler, 33P-ATP); type: biochemical; conditions: read-out: The percentage of the remaining active protein
[23] = target: PAR-1Bα(h) (Homo sapiens (Human), UniProt Q7KZI7); experiment: Kinase inhibition assay (KinaseProfiler, 33P-ATP); type: biochemical; conditions: read-out: The percentage of the remaining active protein
[24] = target: PDGFRβ(h) (Homo sapiens (Human), UniProt P09619); experiment: Kinase inhibition assay (KinaseProfiler, 33P-ATP); type: biochemical; conditions: read-out: The percentage of the remaining active protein
[25] = target: Pim-2(h) (Homo sapiens (Human), UniProt Q9P1W9); experiment: Kinase inhibition assay (KinaseProfiler, 33P-ATP); type: biochemical; conditions: read-out: The percentage of the remaining active protein
[26] = target: PKCι(h) (Homo sapiens (Human), UniProt P41743); experiment: Kinase inhibition assay (KinaseProfiler, 33P-ATP); type: biochemical; conditions: read-out: The percentage of the remaining active protein
[27] = target: PKCθ(h) (Homo sapiens (Human), UniProt Q04759); experiment: Kinase inhibition assay (KinaseProfiler, 33P-ATP); type: biochemical; conditions: read-out: The percentage of the remaining active protein
[28] = target: ROCK-II(h) (Homo sapiens (Human), UniProt O75116); experiment: Kinase inhibition assay (KinaseProfiler, 33P-ATP); type: biochemical; conditions: read-out: The percentage of the remaining active protein
[29] = target: Rsk1(r) (Rattus norvegicus (Rat), UniProt Q63531); experiment: Kinase inhibition assay (KinaseProfiler, 33P-ATP); type: biochemical; conditions: read-out: The percentage of the remaining active protein
[30] = target: SGK2(h) (Homo sapiens (Human), UniProt Q9HBY8); experiment: Kinase inhibition assay (KinaseProfiler, 33P-ATP); type: biochemical; conditions: read-out: The percentage of the remaining active protein
[31] = target: SNRK(h) (Homo sapiens (Human), UniProt Q9NRH2); experiment: Kinase inhibition assay (KinaseProfiler, 33P-ATP); type: biochemical; conditions: read-out: The percentage of the remaining active protein
[32] = target: SRPK1(h) (Homo sapiens (Human), UniProt Q96SB4); experiment: Kinase inhibition assay (KinaseProfiler, 33P-ATP); type: biochemical; conditions: read-out: The percentage of the remaining active protein
[33] = target: VRK2(h) (Homo sapiens (Human), UniProt Q86Y07); experiment: Kinase inhibition assay (KinaseProfiler, 33P-ATP); type: biochemical; conditions: read-out: The percentage of the remaining active protein
[34] = target: PI3 Kinase (p120g)(h) (Homo sapiens (Human), UniProt P48736); experiment: Kinase inhibition assay (KinaseProfiler, 33P-ATP); type: biochemical; conditions: read-out: The percentage of the remaining active protein
[35] = target: PI3KC2a(h) (Homo sapiens (Human), UniProt O00443); experiment: Kinase inhibition assay (KinaseProfiler, 33P-ATP); type: biochemical; conditions: read-out: The percentage of the remaining active protein
[36] = target: PTK5 (Homo sapiens (Human), UniProt P42685); experiment: Kinase inhibition assay (KinaseProfiler, 33P-ATP); conditions: read-out: The percentage of the remaining active protein

Chain of PI3 Kinase (p120g)(h) (P48736 whole entry): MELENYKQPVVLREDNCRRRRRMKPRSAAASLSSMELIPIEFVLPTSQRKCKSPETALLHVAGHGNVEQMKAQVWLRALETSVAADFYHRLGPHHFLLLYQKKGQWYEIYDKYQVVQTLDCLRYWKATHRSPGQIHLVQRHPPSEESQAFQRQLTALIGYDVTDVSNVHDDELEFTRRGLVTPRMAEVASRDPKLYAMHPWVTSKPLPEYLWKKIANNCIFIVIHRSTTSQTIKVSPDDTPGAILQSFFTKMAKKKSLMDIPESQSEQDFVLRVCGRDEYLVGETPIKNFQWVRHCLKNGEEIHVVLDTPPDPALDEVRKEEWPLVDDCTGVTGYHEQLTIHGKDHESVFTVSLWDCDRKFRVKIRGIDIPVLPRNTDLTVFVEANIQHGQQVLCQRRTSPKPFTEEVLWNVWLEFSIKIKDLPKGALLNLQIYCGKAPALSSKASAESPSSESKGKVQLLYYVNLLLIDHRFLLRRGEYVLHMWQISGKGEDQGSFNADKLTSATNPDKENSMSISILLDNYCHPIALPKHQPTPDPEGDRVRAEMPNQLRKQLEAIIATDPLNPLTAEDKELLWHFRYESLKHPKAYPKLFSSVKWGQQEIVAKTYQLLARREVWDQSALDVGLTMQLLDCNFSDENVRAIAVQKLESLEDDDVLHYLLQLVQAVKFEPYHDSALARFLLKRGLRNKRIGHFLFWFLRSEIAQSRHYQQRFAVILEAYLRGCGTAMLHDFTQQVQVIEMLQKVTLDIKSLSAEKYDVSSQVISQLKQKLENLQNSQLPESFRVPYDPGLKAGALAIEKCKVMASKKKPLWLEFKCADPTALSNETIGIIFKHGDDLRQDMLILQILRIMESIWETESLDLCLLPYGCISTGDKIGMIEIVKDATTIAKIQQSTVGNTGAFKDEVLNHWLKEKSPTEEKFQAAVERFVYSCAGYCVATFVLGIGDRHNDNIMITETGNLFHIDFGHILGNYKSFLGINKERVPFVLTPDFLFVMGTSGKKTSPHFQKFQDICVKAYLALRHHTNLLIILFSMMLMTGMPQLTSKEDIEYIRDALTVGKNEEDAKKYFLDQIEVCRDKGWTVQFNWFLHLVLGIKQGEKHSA
Chain of Met(D1246N)(h) (P08581 other isoform, or with tags, fused parts or gaps D1246N): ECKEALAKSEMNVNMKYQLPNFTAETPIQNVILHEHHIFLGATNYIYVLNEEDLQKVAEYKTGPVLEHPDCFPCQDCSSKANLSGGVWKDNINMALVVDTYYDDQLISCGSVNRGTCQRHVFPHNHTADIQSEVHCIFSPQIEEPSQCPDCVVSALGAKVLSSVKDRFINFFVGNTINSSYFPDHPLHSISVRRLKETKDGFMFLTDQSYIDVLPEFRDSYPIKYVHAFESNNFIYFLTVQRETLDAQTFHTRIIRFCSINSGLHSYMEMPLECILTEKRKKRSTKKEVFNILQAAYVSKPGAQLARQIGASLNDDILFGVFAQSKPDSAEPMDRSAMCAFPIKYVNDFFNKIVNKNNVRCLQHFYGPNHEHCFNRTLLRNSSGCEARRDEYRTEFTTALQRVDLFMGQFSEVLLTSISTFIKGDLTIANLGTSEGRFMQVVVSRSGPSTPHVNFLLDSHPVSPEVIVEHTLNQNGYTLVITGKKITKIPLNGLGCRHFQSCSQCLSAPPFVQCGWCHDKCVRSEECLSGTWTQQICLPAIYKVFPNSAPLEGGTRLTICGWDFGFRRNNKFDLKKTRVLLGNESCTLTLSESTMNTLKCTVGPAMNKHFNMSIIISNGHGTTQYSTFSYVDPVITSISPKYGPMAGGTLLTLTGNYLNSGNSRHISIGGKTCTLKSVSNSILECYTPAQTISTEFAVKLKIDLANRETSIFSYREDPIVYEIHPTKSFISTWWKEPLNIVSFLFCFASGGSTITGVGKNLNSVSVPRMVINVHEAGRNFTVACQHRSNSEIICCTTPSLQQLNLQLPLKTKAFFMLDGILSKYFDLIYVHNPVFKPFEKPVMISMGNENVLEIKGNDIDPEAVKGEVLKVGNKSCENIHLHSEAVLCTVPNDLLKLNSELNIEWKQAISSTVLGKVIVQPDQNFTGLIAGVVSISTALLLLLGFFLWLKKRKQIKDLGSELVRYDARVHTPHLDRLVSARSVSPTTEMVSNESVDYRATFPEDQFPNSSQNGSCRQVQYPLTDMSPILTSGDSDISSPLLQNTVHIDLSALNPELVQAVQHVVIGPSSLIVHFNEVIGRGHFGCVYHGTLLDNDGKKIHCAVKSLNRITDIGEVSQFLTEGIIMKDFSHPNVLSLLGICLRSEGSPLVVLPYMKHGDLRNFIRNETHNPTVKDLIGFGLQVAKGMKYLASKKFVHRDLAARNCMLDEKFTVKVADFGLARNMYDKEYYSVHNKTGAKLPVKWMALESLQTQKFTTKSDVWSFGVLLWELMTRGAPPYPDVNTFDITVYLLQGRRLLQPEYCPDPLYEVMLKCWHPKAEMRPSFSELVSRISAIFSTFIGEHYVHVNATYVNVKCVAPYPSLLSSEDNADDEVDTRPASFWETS
Chain of NEK6(h) (Q9HC98 whole entry): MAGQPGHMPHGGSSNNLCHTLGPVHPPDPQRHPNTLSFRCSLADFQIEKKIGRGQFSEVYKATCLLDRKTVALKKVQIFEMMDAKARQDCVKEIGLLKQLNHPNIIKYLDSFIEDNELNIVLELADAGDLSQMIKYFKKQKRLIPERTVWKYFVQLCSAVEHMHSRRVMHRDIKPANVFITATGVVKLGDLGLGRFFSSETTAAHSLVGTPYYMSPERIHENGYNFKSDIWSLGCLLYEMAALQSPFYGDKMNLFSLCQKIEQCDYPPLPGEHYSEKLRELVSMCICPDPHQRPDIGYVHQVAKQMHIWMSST
Chain of IR(h) (P06213 28-1382): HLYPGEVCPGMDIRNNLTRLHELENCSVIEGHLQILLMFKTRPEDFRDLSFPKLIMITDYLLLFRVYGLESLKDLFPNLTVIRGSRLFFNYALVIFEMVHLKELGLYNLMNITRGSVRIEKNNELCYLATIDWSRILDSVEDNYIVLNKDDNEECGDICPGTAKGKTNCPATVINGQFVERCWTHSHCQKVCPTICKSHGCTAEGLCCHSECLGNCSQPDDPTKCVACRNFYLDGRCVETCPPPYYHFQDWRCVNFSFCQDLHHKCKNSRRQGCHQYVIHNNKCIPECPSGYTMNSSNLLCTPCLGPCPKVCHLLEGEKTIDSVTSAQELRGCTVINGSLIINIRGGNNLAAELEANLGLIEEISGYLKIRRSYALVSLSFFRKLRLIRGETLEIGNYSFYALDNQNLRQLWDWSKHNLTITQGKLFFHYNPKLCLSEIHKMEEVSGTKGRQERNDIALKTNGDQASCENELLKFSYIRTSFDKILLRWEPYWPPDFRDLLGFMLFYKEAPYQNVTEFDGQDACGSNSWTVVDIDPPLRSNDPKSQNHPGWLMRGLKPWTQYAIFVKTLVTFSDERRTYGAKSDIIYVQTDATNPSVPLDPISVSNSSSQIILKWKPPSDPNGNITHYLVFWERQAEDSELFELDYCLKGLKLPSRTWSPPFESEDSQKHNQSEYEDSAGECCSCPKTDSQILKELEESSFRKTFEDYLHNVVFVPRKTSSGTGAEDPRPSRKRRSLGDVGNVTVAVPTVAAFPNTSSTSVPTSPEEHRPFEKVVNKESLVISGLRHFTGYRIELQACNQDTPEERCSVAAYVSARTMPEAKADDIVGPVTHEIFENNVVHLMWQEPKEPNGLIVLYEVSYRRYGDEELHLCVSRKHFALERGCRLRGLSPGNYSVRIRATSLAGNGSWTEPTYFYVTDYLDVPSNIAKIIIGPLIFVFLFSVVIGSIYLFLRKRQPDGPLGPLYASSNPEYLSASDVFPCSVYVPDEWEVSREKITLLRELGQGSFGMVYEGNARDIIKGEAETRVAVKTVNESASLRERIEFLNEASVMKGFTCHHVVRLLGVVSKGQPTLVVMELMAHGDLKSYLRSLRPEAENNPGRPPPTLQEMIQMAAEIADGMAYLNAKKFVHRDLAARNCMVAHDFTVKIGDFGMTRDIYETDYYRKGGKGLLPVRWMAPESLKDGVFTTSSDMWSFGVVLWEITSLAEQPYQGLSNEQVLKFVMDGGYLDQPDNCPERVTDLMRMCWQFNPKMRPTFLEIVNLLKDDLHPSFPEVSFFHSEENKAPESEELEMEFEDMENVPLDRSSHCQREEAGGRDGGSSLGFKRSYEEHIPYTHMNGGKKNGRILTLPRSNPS
Chain of CHK2(R145W)(h) (O96017 whole entry R145W): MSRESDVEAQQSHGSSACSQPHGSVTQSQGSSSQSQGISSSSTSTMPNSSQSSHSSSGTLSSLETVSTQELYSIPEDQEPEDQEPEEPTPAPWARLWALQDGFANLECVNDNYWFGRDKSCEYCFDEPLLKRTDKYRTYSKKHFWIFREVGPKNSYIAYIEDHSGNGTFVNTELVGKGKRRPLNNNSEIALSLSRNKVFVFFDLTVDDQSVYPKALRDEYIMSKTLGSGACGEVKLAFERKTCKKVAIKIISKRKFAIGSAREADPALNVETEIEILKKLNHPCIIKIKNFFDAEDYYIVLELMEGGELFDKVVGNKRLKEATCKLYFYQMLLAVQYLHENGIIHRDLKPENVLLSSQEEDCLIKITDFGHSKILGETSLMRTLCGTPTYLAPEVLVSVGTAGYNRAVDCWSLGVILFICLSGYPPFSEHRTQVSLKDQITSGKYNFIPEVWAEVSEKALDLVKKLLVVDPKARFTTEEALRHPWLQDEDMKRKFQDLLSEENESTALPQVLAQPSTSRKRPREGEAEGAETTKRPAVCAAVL
Chain of Pim-2(h) (Q9P1W9 whole entry): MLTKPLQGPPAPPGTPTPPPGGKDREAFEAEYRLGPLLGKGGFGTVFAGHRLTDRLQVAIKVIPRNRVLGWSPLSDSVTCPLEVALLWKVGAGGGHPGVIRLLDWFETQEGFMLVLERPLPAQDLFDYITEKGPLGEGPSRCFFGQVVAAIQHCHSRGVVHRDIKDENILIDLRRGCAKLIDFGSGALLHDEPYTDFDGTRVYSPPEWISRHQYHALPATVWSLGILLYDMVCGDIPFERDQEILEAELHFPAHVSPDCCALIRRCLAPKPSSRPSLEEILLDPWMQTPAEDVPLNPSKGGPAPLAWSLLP

remaining activity at 10 µM [1]: 4% | IC50 [2]: > 10 µM | IC50 [3]: 100 to 300 nM | remaining activity at 10 µM [4]: 0% | remaining activity at 10 µM [5]: 93% | remaining activity at 10 µM [6]: 86% | remaining activity at 10 µM [7]: 87% | remaining activity at 10 µM [8]: 113% | remaining activity at 10 µM [9]: 102% | remaining activity at 10 µM [10]: -1% | remaining activity at 10 µM [11]: 50% | remaining activity at 10 µM [12]: 100% | remaining activity at 10 µM [13]: 97% | remaining activity at 10 µM [14]: 107% | remaining activity at 10 µM [15]: 101% | remaining activity at 10 µM [16]: 94% | remaining activity at 10 µM [17]: 73% | remaining activity at 10 µM [18]: 124% | remaining activity at 10 µM [19]: 103% | remaining activity at 10 µM [20]: 98% | remaining activity at 10 µM [21]: 82% | remaining activity at 10 µM [22]: 89% | remaining activity at 10 µM [23]: 98% | remaining activity at 10 µM [24]: 87% | remaining activity at 10 µM [25]: 112% | remaining activity at 10 µM [26]: 91% | remaining activity at 10 µM [27]: 103% | remaining activity at 10 µM [28]: 56% | remaining activity at 10 µM [29]: 20% | remaining activity at 10 µM [30]: 97% | remaining activity at 10 µM [31]: 92% | remaining activity at 10 µM [32]: 106% | remaining activity at 10 µM [33]: 85% | remaining activity at 10 µM [34]: 87% | remaining activity at 10 µM [35]: 92% | remaining activity at 10 µM [36]: 1%
Compound: Cc1ccc(NC(=O)c2ccc(C)c(C(F)(F)F)c2)cc1C#Cc1nn([C@H]2CC[C@H](O)CC2)c2ncnc(N)c12 [Compound 93]
